Columns and labels:
[1] = tested on: Monocotyledonous and dicotyledonous test plants; assay: Herbicidal action, application pre-emergence (Example B1); format: in vivo; set-up: key: 10=total damage to plant; 0=no damage to plant; conditions: 1000 g/ha, scale 10=total damage to plant, 0=no damage to plant, evaluated after 9 or 13 days
Experimental: Monocotyledonous and dicotyledonous test plants were sown in sterilised standard soil in seed trays each having 96 cells. After one day (pre-emergence) or after 8 to 9 days cultivation (post-emergence) under controlled conditions in a climatic chamber (cultivation at 17/23° C.; 13 hours light; 50-60% humidity; after application at 19/24° C.), the plants were treated with an aqueous spray solution of 1000 mg/l of the active ingredient used (including 10% DMSO as solvent). The plants were grown on in the climatic chamber until the test was evaluated (10=total damage to plant, 0=no damage to plant) after 9 or 13 days.

maize (Marista) = assay: Pre-emergent safening test on maize (Example E1); format: in vivo; conditions: Comp. 1.01 WP 25% AW/W alone, evaluated after 14 days
Experimental: The test plants were sown in seed trays under greenhouse conditions. A standard earth was used as the culture substrate. In a pre-emergent stage, the herbicides were applied both by themselves and in a mixture with safeners to the soil surface. The application was carried out with an aqueous suspension of the test substances, prepared from a 25% wettable powder (Example F3, b according to WO 97/34485) or from a suspension concentrate (Example F8 according to WO 97/34485), to achieve a field equivalent of 200 1/ha. The tests were evaluated after 14 days (100%=plants completely dead; 0%=no phytotoxic action on the plants).

SMILES	Herbicidal action on Agrostis (damage rating) [1]	Herbicidal action on Digitaria (damage rating) [1]	Herbicidal action on Poa (damage rating) [1]	Herbicidal action on Setaria (damage rating) [1]	melting point [°C]	phytotoxic action on maize (100%=plants completely dead; 0%=no phytotoxic action on the plants) (maize (Marista); 200 g/ha) [%]	phytotoxic action on maize (100%=plants completely dead; 0%=no phytotoxic action on the plants) (maize (Marista); 400 g/ha) [%]
Cc1ccccc1CS(=N)(=O)C1=NOC(C)(C)C1 (centres unmarked) [1.27]	5	8	0	5			
Cc1ccc(F)c(CS(=N)(=O)C2=NOC(C)(C)C2)c1F (centres unmarked) [1.28]	10	9	10	8			
CC1(C)CC(S(=O)(Cc2c(F)cccc2F)=NC(=O)c2ccc(Cl)cc2)=NO1 (centres unmarked) [1.03]	7	8	10	8	154 to 156		
CC(c1c(F)cccc1F)S(=O)(=NC(=O)C(F)(F)F)C1=NOC(C)(C)C1 (centres unmarked) [1.20]	9	8	4	8			
Cn1nc(C(F)(F)F)c(CS(=N)(=O)C2=NOC(C)(C)C2)c1Cl (centres unmarked) [2.01]	10	10	10	10			
CC1(C)CC(S(=N)(=O)Cc2ccccc2OC(F)F)=NO1 (centres unmarked) [1.25]	10	9	10	8			
CC1(C)CC(S(=O)(Cc2c(F)cccc2F)=NS(=O)(=O)C(F)(F)F)=NO1 (centres unmarked) [1.14, 3-{2,6-difluoro-phenylmethane(N-trifluoromethylsulphonyl)-sulfoximinyl)-5,5-dimethyl-4,5-dihydroisoxazole]	10	7	10	0	108		
CC1(C)CC(S(=O)(Cc2c(F)cccc2F)=NC(=O)c2ccccc2)=NO1 (centres unmarked) [1.36]	10	5	0	7			
CC1(C)CC(S(=N)(=O)Cc2cc(F)ccc2F)=NO1 (centres unmarked) [1.34]	10	9	10	8			
CC1(C)CC(S(=O)(=NC(=O)C(F)(F)F)C(Cl)c2c(F)cccc2F)=NO1 (centres unmarked) [1.05]	10	9	10	9			
CC(c1c(F)cccc1F)S(=O)(=NC(=O)C(F)(F)F)C1=NOC(C)(C)C1 (centres unmarked) [1.19]	10	9	6	9			
CC1(C)CC(S(=N)(=O)Cc2c(F)cccc2F)=NO1 (centres unmarked) [Comp. 1.01]	10	10	10	9		67.5	62.5
CC1(C)CC(S(=N)(=O)Cc2ccccc2C(F)(F)F)=NO1 (centres unmarked) [1.31]	10	8	8	8			
CC1(C)CC(S(=N)(=O)Cc2ccccc2OC(F)(F)F)=NO1 (centres unmarked) [1.24]	10	9	0	8			
CC1(C)CC(S(=N)(=O)Cc2c(F)cccc2C(F)(F)F)=NO1 (centres unmarked) [1.32]	10	10	10	9			
CN=S(=O)(Cc1c(F)cccc1F)C1=NOC(C)(C)C1 (centres unmarked) [1.08, 3-{2,6-difluoro-phenylmethane(N-methyl)sulfoximinyl)-5,5-dimethyl-4,5-dihydroisoxazole]	10	7	10	9			
CC1(C)CC(S(=O)(Cc2c(F)cccc2F)=NC=O)=NO1 (centres unmarked) [1.13]	10	9	10	9			
CC1(C)CC(S(=N)(=O)C(Cl)c2c(F)cccc2F)=NO1 (mixture of isomers) [1.02]	10	10	10	10			
CC1(C)CC(S(=O)(Cc2c(F)cccc2F)=NC(=O)c2cccnc2Cl)=NO1 (centres unmarked) [1.21]	10	9	10	9			
CC1(C)CC(S(=N)(=O)Cc2ccc(F)cc2F)=NO1 (centres unmarked) [1.30]	10	10	10	8			
CC(C)(C)OC(=O)N=S(=O)(Cc1c(F)cccc1F)C1=NOC(C)(C)C1 (centres unmarked) [1.06]	9	7	6	10			
CC1(C)CC(S(=O)(Cc2c(F)cccc2F)=NC(=O)C(F)(F)F)=NO1 (centres unmarked) [1.04, 3-{2,6-difluoro-phenylmethane(N-trifluoromethyl-carbonyl)sulfoximinyl)-5,5-dimethyl-4,5-dihydroisoxazole]	10	10	10	10	143 to 144		
CC1(C)CC(S(=O)(=NC(=O)c2ccccc2)C(F)c2c(F)cccc2F)=NO1 (centres unmarked) [1.35]	10	8	10	8			
CC1(C)CC(S(=N)(=O)Cc2cccc(F)c2F)=NO1 (centres unmarked) [1.29]	10	8	10	6			
CC(Cl)OC(=O)N=S(=O)(Cc1c(F)cccc1F)C1=NOC(C)(C)C1 (mixture of isomers) [1.17]	10	8	10	8			
CC1(C)CC(S(=N)(=O)C(F)c2ccccc2OC(F)(F)F)=NO1 (mixture of isomers) [1.56]	10	9	10	8			
CC1(C)CC(S(=N)(=O)C(F)(F)c2c(F)cccc2F)=NO1 (centres unmarked) [1.22]	10	10	10	10			
CC(=O)N=S(=O)(Cc1c(F)cccc1F)C1=NOC(C)(C)C1 (centres unmarked) [1.07]	10	9	10	9			
CC1(C)CC(S(=O)(Cc2c(F)cccc2F)=N[N+](=O)[O-])=NO1 (centres unmarked) [1.15]	10	9	10	8			
CC1(C)CC(S(=N)(=O)Cc2cc(F)cc3c2OCOC3)=NO1 (centres unmarked) [1.48]	0	8	0	8			
